# Test results from ChEMBL document CHEMBL1201862, “PubChem BioAssay data set” (2004).
#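 Exposure lasted 48 hours, with cells grown in 96-well plates and compounds tested at five concentrations. The concentration for 50% growth inhibition is given as GI50.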 Activity calls are given as the source filed them. Rule as the data show it: active = GI50 up to about 1.1 µM and inactive = higher.
# Columns and labels:
# Experiment in all cases: NCI anticancer screen, dose series, 48 h
# 786-0 = test system: 786-0
# A498 = test system: A498
# A549 = test system: A549
# ACHN = test system: ACHN
# BT-549 = test system: BT-549
# CAKI-1 = test system: CAKI-1
# CCRF-CEM = test system: CCRF-CEM
# COLO 205 = test system: COLO 205
# DU-145 = test system: DU-145
# EKVX = test system: EKVX
# HCC 2998 = test system: HCC 2998
# HCT-116 = test system: HCT-116
# HCT-15 = test system: HCT-15
# HL-60 = test system: HL-60
# HOP-62 = test system: HOP-62
# HOP-92 = test system: HOP-92
# HT-29 = test system: HT-29
# Hs-578T = test system: Hs-578T
# IGROV-1 = test system: IGROV-1
# K562 = test system: K562
# KM12 = test system: KM12
# LOX IMVI = test system: LOX IMVI
# M14 = test system: M14
# MCF7 = test system: MCF7
# MDA-MB-231 = test system: MDA-MB-231
# MDA-MB-435 = test system: MDA-MB-435
# MDA-N = test system: MDA-N
# MOLT-4 = test system: MOLT-4
# Malme-3M = test system: Malme-3M
# NCI-H226 = test system: NCI-H226
# NCI-H23 = test system: NCI-H23
# NCI-H460 = test system: NCI-H460
# NCI-H522 = test system: NCI-H522
# NCI/ADR-RES = test system: NCI/ADR-RES
# OVCAR-3 = test system: OVCAR-3
# OVCAR-4 = test system: OVCAR-4
# OVCAR-5 = test system: OVCAR-5
# OVCAR-8 = test system: OVCAR-8
# PC-3 = test system: PC-3
# RPMI-8226 = test system: RPMI-8226
# RXF 393 = test system: RXF 393
# SF-268 = test system: SF-268
# SF-295 = test system: SF-295
# SF-539 = test system: SF-539
# SK-MEL-28 = test system: SK-MEL-28
# SK-MEL-2 = test system: SK-MEL-2
# SK-MEL-5 = test system: SK-MEL-5
# SK-OV-3 = test system: SK-OV-3
# SN12C = test system: SN12C
# SNB-19 = test system: SNB-19
# SNB-75 = test system: SNB-75
# SR = test system: SR
# SW-620 = test system: SW-620
# T47D = test system: T47D
# TK-10 = test system: TK-10
# UACC-257 = test system: UACC-257
# UACC-62 = test system: UACC-62
# UO-31 = test system: UO-31
compound,measurement,setting,value
CCC(=O)Nc1cccc(/N=C/c2ccc(OC(=O)/C=C\c3ccccc3)cc2)c1,GI50,786-0,65.9 µM (inactive)
same,GI50,A498,> 75 µM (inactive)
same,GI50,A549,54 µM (inactive)
same,GI50,ACHN,39 µM (inactive)
same,GI50,BT-549,37 µM (inactive)
same,GI50,CAKI-1,> 75 µM (inactive)
same,GI50,CCRF-CEM,> 75 µM (inactive)
same,GI50,COLO 205,64.7 µM (inactive)
same,GI50,DU-145,15.5 µM (inactive)
same,GI50,EKVX,52.1 µM (inactive)
same,GI50,HCC 2998,32.3 µM (inactive)
same,GI50,HCT-116,> 75 µM (inactive)
same,GI50,HCT-15,35.8 µM
same,GI50,HL-60,> 75 µM (inactive)
same,GI50,HOP-62,> 75 µM (inactive)
same,GI50,HOP-92,35.2 µM (inactive)
same,GI50,HT-29,36.3 µM (inactive)
same,GI50,Hs-578T,32.5 µM (inactive)
same,GI50,IGROV-1,37.8 µM (inactive)
same,GI50,K562,39.3 µM (inactive)
same,GI50,KM12,49.2 µM (inactive)
same,GI50,LOX IMVI,40.6 µM (inactive)
same,GI50,M14,> 75 µM (inactive)
same,GI50,MCF7,25.2 µM (inactive)
same,GI50,MDA-MB-231,73.3 µM (inactive)
same,GI50,MDA-MB-435,> 75 µM (inactive)
same,GI50,MDA-N,58.6 µM (inactive)
same,GI50,MOLT-4,27 µM (inactive)
same,GI50,Malme-3M,40.4 µM (inactive)
same,GI50,NCI-H226,33.6 µM (inactive)
same,GI50,NCI-H23,> 75 µM (inactive)
same,GI50,NCI-H460,61.5 µM (inactive)
same,GI50,NCI-H522,33.7 µM (inactive)
same,GI50,NCI/ADR-RES,> 75 µM (inactive)
same,GI50,OVCAR-3,43.7 µM (inactive)
same,GI50,OVCAR-4,45.4 µM (inactive)
same,GI50,OVCAR-5,> 75 µM (inactive)
same,GI50,OVCAR-8,> 75 µM (inactive)
same,GI50,PC-3,67 µM (inactive)
same,GI50,RPMI-8226,43.8 µM (inactive)
same,GI50,RXF 393,12.2 µM (inactive)
same,GI50,SF-268,36.7 µM (inactive)
same,GI50,SF-295,41.3 µM (inactive)
same,GI50,SF-539,14.8 µM (inactive)
same,GI50,SK-MEL-28,61.4 µM (inactive)
same,GI50,SK-MEL-2,> 75 µM (inactive)
same,GI50,SK-MEL-5,29.9 µM (inactive)
same,GI50,SK-OV-3,> 75 µM (inactive)
same,GI50,SN12C,> 75 µM (inactive)
same,GI50,SNB-19,> 75 µM (inactive)
same,GI50,SNB-75,12.3 µM (inactive)
same,GI50,SR,54.7 µM (inactive)
same,GI50,SW-620,> 75 µM (inactive)
same,GI50,T47D,8.26 µM (inactive)
same,GI50,TK-10,> 75 µM (inactive)
same,GI50,UACC-257,> 75 µM (inactive)
same,GI50,UACC-62,30.8 µM (inactive)
same,GI50,UO-31,51.2 µM (inactive)
